Test results from ChEMBL document CHEMBL1201862, “PubChem BioAssay data set” (2004).
Calls of active or inactive are those of the source.

What was measured:
[1] = alpha-synuclein stem-loop luciferase translation blockers – H4 neuroglioma cells, luminescence, confirmation (AID 1988); type: functional, cell-based
[2] = target: T1, Corticotropin-releasing factor receptor 2/Corticotropin-releasing factor-binding protein (Homo sapiens, UniProt P24387+Q13324); assay: activators of CRF receptor 2 with binding protein – uHTS hits, confirmation (AID 602473); type: functional; settings: read-out: EC50_Mean
T1 sequence (Q13324 whole entry): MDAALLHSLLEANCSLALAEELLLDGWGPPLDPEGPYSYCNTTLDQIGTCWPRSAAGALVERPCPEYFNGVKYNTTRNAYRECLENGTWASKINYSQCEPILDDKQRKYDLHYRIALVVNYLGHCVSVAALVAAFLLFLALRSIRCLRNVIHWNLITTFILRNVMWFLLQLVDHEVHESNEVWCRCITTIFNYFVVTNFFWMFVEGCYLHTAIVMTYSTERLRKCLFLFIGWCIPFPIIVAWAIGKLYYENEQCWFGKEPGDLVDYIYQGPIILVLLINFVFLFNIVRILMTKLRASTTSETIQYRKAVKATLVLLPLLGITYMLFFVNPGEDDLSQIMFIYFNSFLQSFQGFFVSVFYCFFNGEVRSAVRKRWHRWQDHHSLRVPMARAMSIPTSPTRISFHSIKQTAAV
T1 sequence (P24387 whole entry): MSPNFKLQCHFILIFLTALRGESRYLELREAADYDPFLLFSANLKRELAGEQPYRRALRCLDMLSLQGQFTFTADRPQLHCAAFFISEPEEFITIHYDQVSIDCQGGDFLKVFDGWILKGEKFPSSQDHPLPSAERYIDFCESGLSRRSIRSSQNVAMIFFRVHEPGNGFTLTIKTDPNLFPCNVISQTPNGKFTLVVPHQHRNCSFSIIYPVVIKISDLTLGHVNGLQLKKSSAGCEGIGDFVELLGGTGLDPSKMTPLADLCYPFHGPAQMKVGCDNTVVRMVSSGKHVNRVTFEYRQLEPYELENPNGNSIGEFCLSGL

[3] = target: T1, Corticotropin-releasing factor receptor 2/Corticotropin-releasing factor-binding protein; assay: Dose Response confirmation of uHTS hits for small molecule antagonists of the CRF-binding protein and CRF-R2 receptor complex.; type: functional; settings: read-out: IC50_Mean
[4] = Luminescence Cell-Based Dose Response HTS to Identify Inhibitors of 5'UTR Stem-Loop Driven Prion Protein mRNA Translation in H4 Neuroglioblastoma Cells. [Related pubchem assays: 1827 (Project Summary), 1813 (Primary HTS)]; type: functional
[5] = luciferase reporter signal suppression in cells – H4 neuroglioma cells, luminescence, dose response (AID 1990); type: functional, cell-based
Vero = assay: cells; type: functional; settings: Chlorocebus sabaeus
[6] = target: T2, Heat shock factor protein 1 (Mus musculus, UniProt P38532); assay: enhancement of HSF1-driven luciferase signal – cell-based, NIH3T3, luminescence, dose retest, confirmation (AID 435004); type: functional;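 also: stress induced by proteasome inhibitor MG132 added 30 min after compound; luciferase reporter driven by HSF1 response element in NIH3T3 cells; actives raise luminescence as potentiators of the MG132 stress response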
T2 sequence (P38532 whole entry): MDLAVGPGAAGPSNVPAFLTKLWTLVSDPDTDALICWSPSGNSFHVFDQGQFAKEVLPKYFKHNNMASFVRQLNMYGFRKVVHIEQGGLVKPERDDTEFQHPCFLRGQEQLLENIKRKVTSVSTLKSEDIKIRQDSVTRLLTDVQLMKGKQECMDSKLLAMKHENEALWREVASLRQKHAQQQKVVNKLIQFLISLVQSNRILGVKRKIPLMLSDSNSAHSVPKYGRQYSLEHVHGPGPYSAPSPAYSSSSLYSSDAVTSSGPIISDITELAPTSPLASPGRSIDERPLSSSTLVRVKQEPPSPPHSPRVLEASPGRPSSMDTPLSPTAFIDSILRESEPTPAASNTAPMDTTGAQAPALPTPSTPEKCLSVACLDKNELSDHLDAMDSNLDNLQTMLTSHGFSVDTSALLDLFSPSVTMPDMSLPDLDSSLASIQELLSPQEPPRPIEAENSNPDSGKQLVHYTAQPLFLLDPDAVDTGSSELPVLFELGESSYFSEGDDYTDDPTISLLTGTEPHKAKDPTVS

Cytochrome P450 2C9 [7] = target: T3, Cytochrome P450 2C9 (Homo sapiens, UniProt P11712)
T3 sequence (P11712 whole entry): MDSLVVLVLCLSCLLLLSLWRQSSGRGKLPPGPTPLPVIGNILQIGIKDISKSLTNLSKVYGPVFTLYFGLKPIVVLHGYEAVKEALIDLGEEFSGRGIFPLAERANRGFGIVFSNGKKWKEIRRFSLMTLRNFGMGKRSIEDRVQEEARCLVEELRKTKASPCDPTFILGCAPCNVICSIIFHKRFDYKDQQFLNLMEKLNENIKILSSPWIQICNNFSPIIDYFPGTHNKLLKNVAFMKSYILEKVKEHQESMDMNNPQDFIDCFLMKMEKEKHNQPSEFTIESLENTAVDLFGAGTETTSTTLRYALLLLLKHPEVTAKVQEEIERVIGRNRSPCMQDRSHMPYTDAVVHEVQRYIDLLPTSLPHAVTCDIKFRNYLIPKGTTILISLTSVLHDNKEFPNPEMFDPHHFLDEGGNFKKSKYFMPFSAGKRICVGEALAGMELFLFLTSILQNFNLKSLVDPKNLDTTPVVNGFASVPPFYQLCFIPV

Streptokinase A = target: T4, Streptokinase A (Streptococcus pyogenes serotype M1, UniProt P10520); assay: viability-normalized secreted streptokinase activity reduction – plasminogen activation absorbance, OD405, dose response (AID 1914); type: functional, Streptococcus pyogenes M1 GAS;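 also: secreted streptokinase activity via plasminogen activation per viability signal from cell pellet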
T4 sequence (P10520 whole entry): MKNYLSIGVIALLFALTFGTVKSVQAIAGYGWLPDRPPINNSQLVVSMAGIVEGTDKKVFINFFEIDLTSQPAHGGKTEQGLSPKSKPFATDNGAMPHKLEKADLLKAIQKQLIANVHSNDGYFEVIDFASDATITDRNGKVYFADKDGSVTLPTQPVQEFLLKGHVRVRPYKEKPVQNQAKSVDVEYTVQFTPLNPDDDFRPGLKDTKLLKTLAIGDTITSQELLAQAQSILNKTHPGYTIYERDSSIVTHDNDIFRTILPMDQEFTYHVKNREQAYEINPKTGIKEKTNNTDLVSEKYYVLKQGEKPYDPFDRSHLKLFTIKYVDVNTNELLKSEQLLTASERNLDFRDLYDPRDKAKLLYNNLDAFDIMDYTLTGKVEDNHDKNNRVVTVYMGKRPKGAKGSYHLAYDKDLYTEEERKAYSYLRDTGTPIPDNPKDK

[8] = system: Streptococcus sp. 'group A'; assay: Streptococcus pyogenes SK(-)GAS viability under kanamycin – luminescence, BacTiterGlo, confirmation, counter-screen for streptokinase expression inhibitor project, dose response (AID 1900); type: functional, organism-based
Streptococcus = assay: GAS UMAA2166 growth inhibition – luminescence, BacTiterGlo, counter-screen for streptokinase expression inhibitor project, dose response (AID 1915); type: functional, organism-based;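 also: potency for reduction of bacterial viability or growth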
INS1 = assay: INS-1E survival protection against cytokine death – cell-based, luminescence, retest, dose response (AID 449756); type: functional; settings: Rattus norvegicus;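 also: cell death triggered by IL-1 beta plus TNF-alpha plus IFN-gamma mixture; protective hits raise ATP signal compared with cytokine alone wells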
[9] = NIH3T3 cell viability loss – ATP luminescence, mouse fibroblasts, counter-screen, dose response (AID 2010); type: functional, cell-based;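 also: cells exposed to compound for about 90 hours before reading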
[10] = Trypanosoma cruzi growth suppression in host cells – NIH3T3 host cells, beta-gal luminescence, confirmation (AID 2044); type: functional, cell-based;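 also: intracellular parasites grown in NIH/3T3 mouse fibroblasts as host cells; luminescent beta-galactosidase reporter signal from transgenic T. cruzi replicating inside host cells; inhibitors lower the luminescence signal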
Cytochrome P450 3A4 = Cytochrome P450 3A4 (Homo sapiens, UniProt P08684);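 also: CYP3A4 tested as one member of a cytochrome P450 panel screen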
Chain of Cytochrome P450 3A4 (P08684 whole entry): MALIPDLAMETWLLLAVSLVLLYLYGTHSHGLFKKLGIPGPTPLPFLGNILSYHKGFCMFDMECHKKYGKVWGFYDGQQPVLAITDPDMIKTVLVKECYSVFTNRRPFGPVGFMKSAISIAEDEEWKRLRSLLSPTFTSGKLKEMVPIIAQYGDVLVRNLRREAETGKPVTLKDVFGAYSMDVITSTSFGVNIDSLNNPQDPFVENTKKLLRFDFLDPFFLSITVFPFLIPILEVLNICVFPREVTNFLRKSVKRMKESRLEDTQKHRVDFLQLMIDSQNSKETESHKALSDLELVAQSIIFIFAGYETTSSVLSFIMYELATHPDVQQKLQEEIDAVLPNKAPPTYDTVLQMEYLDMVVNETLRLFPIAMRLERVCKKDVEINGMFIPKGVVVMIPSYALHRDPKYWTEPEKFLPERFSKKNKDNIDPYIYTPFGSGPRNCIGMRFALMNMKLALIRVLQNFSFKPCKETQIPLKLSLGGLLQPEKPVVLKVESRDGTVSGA

Cytochrome P450 2C9 [11] = target: T3, Cytochrome P450 2C9; remark: listed apart in the source
Cytochrome P450 1A2 = target: T5, Cytochrome P450 1A2 (Homo sapiens, UniProt P05177);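 also: PubChem cytochrome P450 panel assay, CYP1A2 panel member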
T5 sequence (P05177 whole entry): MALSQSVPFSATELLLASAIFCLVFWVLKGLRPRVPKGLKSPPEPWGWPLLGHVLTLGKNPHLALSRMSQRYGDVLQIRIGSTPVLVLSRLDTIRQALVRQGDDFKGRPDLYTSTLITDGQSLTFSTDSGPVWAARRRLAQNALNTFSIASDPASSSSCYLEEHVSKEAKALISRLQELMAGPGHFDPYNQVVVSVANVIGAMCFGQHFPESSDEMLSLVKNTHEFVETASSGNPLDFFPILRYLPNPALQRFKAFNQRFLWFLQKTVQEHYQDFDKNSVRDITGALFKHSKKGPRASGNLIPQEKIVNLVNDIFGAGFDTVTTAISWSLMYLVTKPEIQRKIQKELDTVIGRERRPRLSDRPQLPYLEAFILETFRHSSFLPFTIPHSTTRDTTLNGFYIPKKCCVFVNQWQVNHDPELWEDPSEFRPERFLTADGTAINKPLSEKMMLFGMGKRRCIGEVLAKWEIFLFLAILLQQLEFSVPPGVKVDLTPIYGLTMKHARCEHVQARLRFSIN

Cytochrome P450 2C19 = Cytochrome P450 2C19 (Homo sapiens, UniProt P33261); assay: Cytochrome panel assay with activity outcomes. Panel member name: p450-cyp2c19 Compounds with AC50 equal or less than 10 uM are considered active; type: functional
Chain of Cytochrome P450 2C19 (P33261 whole entry): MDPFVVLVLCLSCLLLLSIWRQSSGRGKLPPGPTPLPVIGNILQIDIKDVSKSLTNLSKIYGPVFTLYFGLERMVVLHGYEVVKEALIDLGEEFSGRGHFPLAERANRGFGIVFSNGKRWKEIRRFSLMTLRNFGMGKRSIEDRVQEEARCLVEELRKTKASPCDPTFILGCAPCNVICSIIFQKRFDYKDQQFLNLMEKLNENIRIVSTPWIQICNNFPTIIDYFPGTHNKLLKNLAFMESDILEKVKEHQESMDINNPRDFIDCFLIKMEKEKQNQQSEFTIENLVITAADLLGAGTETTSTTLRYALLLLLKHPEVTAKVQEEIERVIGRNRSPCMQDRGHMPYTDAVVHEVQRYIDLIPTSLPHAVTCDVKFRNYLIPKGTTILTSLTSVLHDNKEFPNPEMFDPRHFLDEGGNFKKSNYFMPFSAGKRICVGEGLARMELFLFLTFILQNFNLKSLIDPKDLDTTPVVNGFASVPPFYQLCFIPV

## COCCn1c(SCC(=O)Nc2cccc(C(=O)OC)c2)nc2ccccc2c1=O
[1]
  EC50: 15.2 µM (active)
[2]
  EC50: > 53 µM (inactive)
[3]
  IC50: > 47.1 µM (inactive)
[4]
  EC50: > 120 µM (not active)
[5]
  EC50: 36.7 µM (active)

## Cn1ncc2c(Nc3ccc(-c4ccccc4)cc3)ncnc21
Vero
  CC50: > 25 µM (active)

## CCOC(=O)CSc1nc2c(sc3ccc([N+](=O)[O-])cc32)c(=O)n1Cc1ccco1
[6]
  EC50: > 260 µM (inactive)

## COc1ccccc1COC(=O)Nc1c(C)nn(C)c1Cl
Cytochrome P450 2C9 [7]
  AC50: inconclusive

## O=C(C[n+]1nc(CNc2ccc(Cl)cc2)n2c1CCCCC2)c1ccc(Br)cc1
[2]
  EC50: > 53 µM (inactive)
[3]
  IC50: > 47.1 µM (inactive)
Streptokinase A
  EC50: 12.5 µM (active)
[8]
  EC50: 5.64 µM (active)
Streptococcus
  EC50: 84.2 µM (active)

## COc1ccc(O)c(C(=O)CC(=O)c2ccccc2C)c1
Streptokinase A
  EC50: > 150 µM (not active)
[8]
  EC50: 6.85 µM (active)
Streptococcus
  EC50: 49.1 µM (active)
Vero
  CC50: 20.4 µM (active)

## COc1ccccc1/C=C/c1nc(S(=O)(=O)c2ccccc2)c(N(C)C)o1
[2]
  EC50: > 53 µM (inactive)
[3]
  IC50: < 0.368 µM (active)

## Cc1cccc(-n2c(SCc3ccc(C#N)cc3)nnc2-c2c[nH]c3ccccc23)c1
[1]
  EC50: 25.7 µM (active)
[4]
  EC50: > 120 µM (not active)
[5]
  EC50: > 120 µM (not active)

## C=C(C)COc1ccc(-c2nc(N)ncc2-c2ccc(OC)c(OC)c2)c(O)c1
[1]
  EC50: 15.7 µM (active)
[4]
  EC50: > 120 µM (not active)
[5]
  EC50: 33.7 µM (active)

## CC1(c2ccc([N+](=O)[O-])cc2)NC(=O)N(CC(=O)c2ccc3c(c2)OCO3)C1=O (configuration not stated)
[6]
  EC50: > 260 µM (inactive)
[2]
  EC50: 12.1 µM (active)

## CC(Oc1ccc(Cl)cc1)C(=O)OCC(=O)Nc1ncc(Cl)cc1Cl (configuration not stated)
[6]
  EC50: > 260 µM (inactive)

## CS(=O)(=O)N(CC(=O)Nc1ccc(CC#N)cc1)c1ccc(C23CC4CC(CC(C4)C2)C3)cc1
INS1
  AC50: 6.44 µM (active)
[6]
  EC50: > 260 µM (inactive)
[9]
  EC50: > 60 µM (not active)
[10]
  EC50: 2.35 µM (active)

## C/C(C[n+]1ccccc1)=N\N=C(N)N
Cytochrome P450 2C9 [7]
  AC50: inconclusive

## CC(C)CC(=O)Nc1ccc(N2CCOCC2)cc1
[6]
  EC50: > 260 µM (inactive)

## COc1cc(NC(=O)c2cc3ccccc3o2)c(OC)cc1Br
Cytochrome P450 3A4
  AC50: 10 µM (inconclusive)
[1]
  EC50: 14.7 µM (active)
[4]
  EC50: > 120 µM (not active)
Cytochrome P450 2C9 [11]
  AC50: 0.112 µM (inconclusive)
Cytochrome P450 1A2
  AC50: 2.24 µM (inconclusive)

## Cc1ccc(OCC(=O)N2N=C(C(F)(F)F)CC2(O)C(C)(C)C)cc1C (configuration not stated)
[1]
  EC50: 33.1 µM (active)
[4]
  EC50: 21.8 µM (active)
[5]
  EC50: 102 µM (active)

## COc1cccc(C(=O)OCC(=O)NCCC2=CCCCC2)c1
[2]
  EC50: > 53 µM (inactive)
[3]
  IC50: > 47.1 µM (inactive)

## CCCNC(=O)c1c(CSc2ccc(Cl)cc2)noc1C(=O)NCc1ccccc1
[6]
  EC50: > 260 µM (inactive)

## O=C(NCC(c1ccco1)N1CCCCC1)c1ccc(COc2ccc(Cl)cc2)cc1 (configuration not stated)
Vero
  CC50: > 25 µM (active)

## COc1ccc(CNC(=O)CN(Cc2ccccc2)C(=O)CCC(=O)Nc2nccs2)cc1
[6]
  EC50: > 260 µM (inactive)

## CCOc1ccc(S(=O)(=O)N2CN(c3cccc(C(C)=O)c3)c3nc4ccccc4nc32)cc1
[2]
  EC50: > 53 µM (inactive)
[3]
  IC50: < 0.368 µM (active)

## Cc1nnc(C)n1/N=C/c1cccs1
[2]
  EC50: > 53 µM (inactive)
[3]
  IC50: > 47.1 µM (inactive)
Cytochrome P450 2C19
  AC50: inconclusive
Cytochrome P450 1A2
  AC50: 17.8 µM (inconclusive)

## Nc1nc(N)c(/C=N/c2ccc(Br)cc2)c(Nc2ccc(Br)cc2)n1
[6]
  EC50: 71.2 µM (active)
Streptokinase A
  EC50: > 150 µM (not active)
[8]
  EC50: 1.11 µM (active)
Streptococcus
  EC50: 3.09 µM (active)
Vero
  CC50: > 25 µM (active)

## COc1ccccc1C1SCCN1S(=O)(=O)c1ccccc1 (configuration not stated)
[2]
  EC50: > 53 µM (inactive)
[3]
  IC50: > 47.1 µM (inactive)

## CCOc1cc(/C=N\NC(=O)C2C(=O)NCC2c2ccccc2)ccc1OC (configuration not stated)
[1]
  EC50: > 120 µM (not active)
[2]
  EC50: 5.59 µM (active)
[4]
  EC50: > 120 µM (not active)
[5]
  EC50: > 120 µM (not active)

## Cc1cccc(C)c1/N=C1\SC(CC(=O)Nc2c(C)cccc2C)C(=O)N1CCc1ccccn1 (configuration not stated)
[1]
  EC50: 95.8 µM (active)
[4]
  EC50: 0.46 µM (active)
[5]
  EC50: 10.2 µM (active)
